Laboratory results from patent US20110105393A1, “METHODS FOR PROMOTING STEM CELL PROLIFERATION AND SURVIVAL” (priority 2007, published 2011).

What was measured:
[1] = system: proliferating (BrdU+) cells; assay: BrdU+ proliferating cells after single intra-ventricular injection; type: in vivo, rat; conditions: BrdU days 2-4, sacrifice day 5
Description: (§1) Pharmacological treatments.
(§2) Immunohistochemistry: Under deep anesthesia, animals were perfused transcardially with a rinse of saline, followed by 4% formaldehyde fixative (pH 7.4). Brains were removed immediately, stored in the fixative solution overnight and then in 30% sucrose for 3 days. Brains were frozen-sectioned at 16 μm. Immunohistochemical detection of BrdU and Hes3 was performed with an antigen-retrieval step (sections were boiled in 0.02M citrate, pH 6.0 in a microwave for 5 min, washed 3 times with distilled water, and incubated for 45 min in 2M HCl, at room temperature).
(§3) Hes3+ cells in the central nervous system (CNS) parenchyma were characterized and the means to activate the NSC compartment in vivo was investigated. Single injections of pharmacologically active compounds were performed in the lateral ventricle, bromodeoxyuridine (BrdU) was administered intraperitoneally (days 2-4) and the animals were sacrificed on day 5. At the subventricular zone (SVZ), a single intra-ventricular injection of Dll4 induced STAT3-S727 phosphorylation and Hes3 expression within 5 days. […] BrdU+ cell numbers were elevated in all these areas (FIG. 3a).

[2] = system: dopamine neurons in the substantia nigra; assay: Fluorogold retrograde labelling of dopamine neurons in the substantia nigra, 6OHDA model; type: in vivo, rat; conditions: for neuroprotective effects on neurons: summary of in vivo treatments; for cell body diameter of TH+/Fluorogold+ cells in the substantia nigra: treatment 2-weeks following 6OHDA lesion, ipsilateral (FIG. 6e)
Description: as §1
(§4) To investigate the clinical potential of this treatment approach, the compounds were used in an animal model of Parkinson's disease. Adult rats were lesioned by intra-striatal 6-OH-DA (Przedborski, S. et al., Neuroscience 67, 631-47, 1995). After two weeks, a single injection of the compounds was administered in the lateral ventricle ipsilateral to the lesion. Amphetamine-induced rotations were measured bi-weekly throughout the experiment. Thirteen weeks after treatment they were given a single injection of fluorogold in the striatum to label the […] dopaminergic projection.

blood vessels (RECA-1) = assay: Blood vessel number and size in striatum (RECA-1 staining) after 6OHDA lesion and treatment; conditions: for number and size of blood vessels in the striatum: 13 weeks after a single treatment, pattern recognition software; for blood vessel numbers or size (undesirable effects, summary): rat, in vivo
Description: Blood vessel counting and area quantitation: Zeiss software was used to identify, count, and measure blood vessels stained for the pan-endothelial marker RECA-1. To measure the average distance between adjacent Hes3+ cells along the same blood vessel, 25 high-power (×63) confocal z-stack images were used from brain sections stained for endothelial markers and Hes3.
6OHDA Lesion. Some animals underwent unilateral lesion of the nigrostriatal dopamine pathway by stereotactical injection of 50 μg 6-hydroxydopamine (6-OHDA) into the right striatum, using the following coordinates: bregma AP +0.5 mm, ML −3.0 mm, VD +5.5 mm.
Pharmacological treatments. Unlesioned animals, or animals two weeks after 6-OHDA lesion, were treated with different pharmacologic agents. Five microliters (μl) of different drugs were stereotactically injected into the right lateral ventricle using the following stereotaxic coordinates: bregma AP −0.9 mm, ML −1.4 mm, VD +3.8 mm. The following reagents were used: Dll4 (2 mg/ml), Ang-2 (1 mg/ml), insulin (8 mg/ml), Jak-Inhibitor (20 μM), either alone or in combination.
In vivo Experiments: Male adult (3-6 months) Sprague Dawley rats (Charles River Laboratories), weighing 250-350 gm, was used for pharmacological treatments and lesion experiments. For 6OHDA Lesion: animals underwent unilateral lesion of the nigrostriatal dopamine pathway by stereotactical injection of 50 μg 6-hydroxydopamine (6-OHDA) into the right striatum, using the following coordinates: bregma AP +0.5 mm, ML −3.0 mm, VD +5.5 mm. For pharmacological treatments: unlesioned animals, or animals two weeks after 6OHDA lesion, were treated with different pharmacologic agents. Five μl of different drugs were stereotactically injected into the right lateral ventricle using the following stereotaxic coordinates: bregma AP −0.9 mm, ML −1.4 mm, VD +3.8 mm. The following reagents were used: Dll4 (2 mg/ml), Ang2 (1 mg/ml), insulin (8 mg/ml), Jak-Inhibitor (20 μM), either alone or in combination. After all surgeries, animals were allowed to recover from the anesthesia and were put back into their home cages, where they were given access to food and water ad libitum. For labeling of dividing cells: Animals received intraperitoneal injection of the tracer bromodeoxyuridine (BrdU) (50 mg/kg) every 12 hours for 5 days beginning on day 1 post-op to label dividing cells. Amphetamine induced rotations: At multiple time points over the course of the experiment, lesioned rats were injected intra-peritoneally with D-Amphetamine sulfate (5 mg/kg) and placed in automated rotometer bowls. Rotational behavior was assessed by monitoring total number of whole body (360°) turns over 60 min.

Hes3+ cells = Hes3+ cells after single intra-ventricular injection; type: in vivo, rat; conditions: for number of Hes3+ cells in the adult striatum and substantia nigra: single intracerebroventricular injection, within 5 days (FIG. 11); for number of stem cells/precursors in the adult brain: summary of in vivo treatments
Description: as §1, §2, §3
as §2, with “(Sections” for “(sections”, “minutes,” for “min,”

6-OHDA lesioned rats = assay: Amphetamine-induced rotometry in the 6OHDA lesion model of Parkinson's disease; type: in vivo, rat; conditions: for recovery in rotational bias: single intraventricular injection 2 weeks after lesion, measured over next 13 weeks, n=4-7 (FIG. 13a)
Description: as §1, §4

NSC cultures = assay: Incidence of Tie-2 spikes in NSC cultures; type: cell-based; conditions: for % of cells with at least one spike: NSC cultures; for spike number: thirty minutes after treatment
Description: A protrusion of the cell membrane was identified in neuronal stem cells (NSCs) when the Tie-2 receptor is concentrated. This can be visualized using antibodies that bind Tie-2. The protrusion was termed a spike. These spikes appear 30 minutes after treatment with pharmaceutical agents. […] increase spike number thirty minutes after treatment. […] Thus, a novel sub-cellular structure ahs been identified. These structures could regulate the responsiveness of cells to treatments.
Thus, a novel protrusion of the cell membrane in NSCs has been identified where the Tie-2 receptor is concentrated. This can be easily visualized using an antibody against Tie-2 that recognizes a particular epitope. […] Indeed, the spike is devoid of actin filaments or tubulin. The spikes can be detected within thirty minutes of contacting the cultures with an the factors. Thus, the spikes provide a rapid assay for the effect of pharmacologic agents.

[3] = 6OHDA lesioned, striatum, RECA-1 (FIG. 5c)

In the case of “Ang-2: human angiopoietin-2 (623-AN) from R&D; antagonist for angiopoietin-1 at Tie2”, the “number of proliferating cells in the SVZ” value [1] is reported as “increased”, the “neuroprotective effects on neurons” value [2] is reported as “exert neuroprotective effects” and the “cell body diameter of TH+/Fluorogold+ cells in the substantia nigra” value [2] is reported as “increase”. The number of vessels (blood vessels (RECA-1); [3]) was “significantly increased”, the “number and size of blood vessels in the striatum” value (blood vessels (RECA-1)) was “opposing and long-lasting effects” and the “blood vessel numbers or size (undesirable effects, summary)” value (“blood vessel numbers or size” below) (blood vessels (RECA-1)) was “increases the number and size of blood vessels”. For the same substance, the “number of Hes3+ cells in the adult striatum and substantia nigra” value (Hes3+ cells) was “increased”, the “number of stem cells/precursors in the adult brain” value (from here on “number of stem cells/precursors”) (Hes3+ cells) was “increase” and the “recovery in rotational bias” value (6-OHDA lesioned rats) was “complete and stable recovery”. The “% of cells with at least one spike” value (NSC cultures) was 2.5% and the spike number (NSC cultures) was “increase”.
“Dll4: Notch ligand Delta-like 4; mouse Dll4 (1389-D4) from R&D” was tested, and the “number of proliferating cells in the SVZ” value [1] was “increased”, the “neuroprotective effects on neurons” value [2] was “exert neuroprotective effects” and the “diameter of the vessels” value (blood vessels (RECA-1); [3]) was “significantly decreased”. For the same substance, the “number and size of blood vessels in the striatum” value (blood vessels (RECA-1)) was “opposing and long-lasting effects”, the “blood vessel numbers or size” value (blood vessels (RECA-1)) was “reduces the number and size of blood vessels” and the “STAT3-S727 phosphorylation and Hes3 expression at the subventricular zone” value (Hes3+ cells; single intra-ventricular injection, within 5 days) was “induced”. For the same substance, the “number of Hes3+ cells in the adult striatum and substantia nigra” value (Hes3+ cells) was “increased”, the “numbers of Hes3+ and Tie-2+ precursor cells in the SVZ” value (Hes3+ cells; single ventricular injection) was “rapidly increased” and the “number of stem cells/precursors” value (Hes3+ cells) was “increase”. The “amphetamine-induced rotations (behavioural recovery)” value (6-OHDA lesioned rats; single intra-ventricular injection 2 weeks after 6-OHDA lesion (FIG. 6a)) was “long-lasting behavioural recovery”, the “recovery in rotational bias” value (6-OHDA lesioned rats) was “partial recovery” and the “% of cells with at least one spike” value (NSC cultures) was 2.1%. The spike number (NSC cultures) was “increase”.
For “insulin: insulin (Sigma, 19278), growth factor”, the “number of proliferating cells in the SVZ” value [1] was “increased”, the “neuroprotective effects on neurons” value [2] was “exert neuroprotective effects” and the “cell body diameter of TH+/Fluorogold+ cells in the substantia nigra” value [2] was “increase”. For the same substance, the “effect on the vasculature (striatum, RECA-1)” value (blood vessels (RECA-1); 6OHDA lesioned, end of experiment (FIG. 5c)) was “relatively small effect”, the “blood vessel numbers or size” value (blood vessels (RECA-1)) was “increases the number of blood vessels adjacent to the injection site” and the “number of stem cells/precursors” value (Hes3+ cells) was “increase”.
